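Following 48 hours of exposure in 96-well plates, responses at five concentrations were used to interpolate endpoints linearly. GI50: concentration for 50% inhibition of growth.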 Active and inactive are the calls of the source. No stated cut-off is given here; in the data, active = GI50 up to about 1.1 µM and inactive = higher.
What was measured:
Test in all cases: NCI tumour cell line growth inhibition, 48 h
[1] = test system: HCT-15
[2] = test system: BT-549
[3] = test system: HCC 2998
[4] = test system: DMS-273
[5] = test system: HOP-62
[6] = test system: Hs-578T
[7] = test system: OVCAR-5
[8] = test system: SNB-78
[9] = test system: UO-31
[10] = test system: SK-MEL-5
[11] = test system: 786-0
[12] = test system: IGROV-1
[13] = test system: HCT-116
[14] = test system: SN12C
[15] = test system: ACHN
[16] = test system: U-251
[17] = test system: SF-539
[18] = test system: OVCAR-3
[19] = test system: SF-295
[20] = test system: SK-OV-3
[21] = test system: DMS-114
[22] = test system: RPMI-8226
[23] = test system: SR
[24] = test system: LXFL 529
[25] = test system: RXF 393
[26] = test system: SNB-19
[27] = test system: DLD-1
[28] = test system: DU-145
[29] = test system: MDA-MB-435
[30] = test system: EKVX
[31] = test system: COLO 205
[32] = test system: NCI-H23
[33] = test system: SW-620
[34] = test system: SK-MEL-2
[35] = test system: UACC-62
[36] = test system: NCI-H460
[37] = test system: M19-MEL
[38] = test system: HL-60
[39] = test system: XF498
[40] = test system: CAKI-1
[41] = test system: T47D
[42] = test system: NCI-H226
[43] = test system: SF-268
[44] = test system: HT-29
[45] = test system: A498
[46] = test system: PC-3
[47] = test system: KM-20L2
[48] = test system: OVCAR-8
[49] = test system: M14
[50] = test system: MDA-N
[51] = test system: KM12
[52] = test system: Malme-3M
[53] = test system: CCRF-CEM
[54] = test system: NCI-H522
[55] = test system: MDA-MB-231
[56] = test system: LOX IMVI
[57] = test system: MOLT-4
[58] = test system: TK-10
[59] = test system: UACC-257
[60] = test system: SK-MEL-28
[61] = test system: SNB-75
[62] = test system: A549
[63] = test system: HOP-92
[64] = test system: OVCAR-4
[65] = test system: K562
[66] = test system: HOP-18
[67] = test system: NCI/ADR-RES
[68] = test system: MCF7

Structure (SMILES): COCC(=O)[C@]1(O)Cc2c(O)c3c(c(O)c2[C@@H](OC2CC(N)C(O)C(C)O2)C1)C(=O)c1c(OC)cccc1C3=O (some centres undefined)
- GI50 [1]: 137 nM
- GI50 [2]: 161 nM (active)
- GI50 [3]: 140 nM (active)
- GI50 [4]: 39.1 nM (active)
- GI50 [5]: 110 nM (active)
- GI50 [6]: < 10 nM (active)
- GI50 [7]: 220 nM (active)
- GI50 [8]: 278 nM (active)
- GI50 [9]: 88.3 nM (active)
- GI50 [10]: 72.8 nM (active)
- GI50 [11]: 37.3 nM (active)
- GI50 [12]: 136 nM (active)
- GI50 [13]: 49.3 nM (active)
- GI50 [14]: 28.5 nM (active)
- GI50 [15]: 70.3 nM (active)
- GI50 [16]: 83.6 nM (active)
- GI50 [17]: 43 nM (active)
- GI50 [18]: 115 nM (active)
- GI50 [19]: 29.6 nM (active)
- GI50 [20]: 254 nM (active)
- GI50 [21]: 71.8 nM (active)
- GI50 [22]: 80 nM (active)
- GI50 [23]: < 13.8 nM (active)
- GI50 [24]: 71.3 nM (active)
- GI50 [25]: 83.4 nM (active)
- GI50 [26]: 88.9 nM (active)
- GI50 [27]: 53.2 nM (active)
- GI50 [28]: 99.1 nM (active)
- GI50 [29]: 188 nM (active)
- GI50 [30]: 455 nM (active)
- GI50 [31]: 168 nM (active)
- GI50 [32]: 53.6 nM (active)
- GI50 [33]: 20.9 nM (active)
- GI50 [34]: 121 nM (active)
- GI50 [35]: 54.5 nM (active)
- GI50 [36]: 23.5 nM (active)
- GI50 [37]: 67.6 nM (active)
- GI50 [38]: 18.8 nM (active)
- GI50 [39]: 57.3 nM (active)
- GI50 [40]: 62.8 nM (active)
- GI50 [41]: 106 nM (active)
- GI50 [42]: 40.1 nM (active)
- GI50 [43]: 35.1 nM (active)
- GI50 [44]: 19.2 nM (active)
- GI50 [45]: 104 nM (active)
- GI50 [46]: 79.1 nM (active)
- GI50 [47]: 111 nM (active)
- GI50 [48]: < 17.2 nM (active)
- GI50 [49]: 92.7 nM (active)
- GI50 [50]: 76.7 nM (active)
- GI50 [51]: 56.4 nM (active)
- GI50 [52]: 105 nM (active)
- GI50 [53]: 15.3 nM (active)
- GI50 [54]: 25.5 nM (active)
- GI50 [55]: 296 nM (active)
- GI50 [56]: 19.1 nM (active)
- GI50 [57]: 14 nM (active)
- GI50 [58]: 431 nM (active)
- GI50 [59]: 299 nM (active)
- GI50 [60]: 93.5 nM (active)
- GI50 [61]: 34.3 nM (active)
- GI50 [62]: 219 nM (active)
- GI50 [63]: 130 nM (active)
- GI50 [64]: 82.6 nM (active)
- GI50 [65]: 12.4 nM (active)

Structure (SMILES): CC1(C)CC2(CC(C)(C)N1O)NC(=O)OC2=O
- GI50 [1]: > 100000 nM
- GI50 [3]: > 100000 nM (inactive)
- GI50 [4]: > 100000 nM (inactive)
- GI50 [5]: > 100000 nM (inactive)
- GI50 [7]: > 100000 nM (inactive)
- GI50 [8]: > 100000 nM (inactive)
- GI50 [9]: > 100000 nM (inactive)
- GI50 [10]: > 100000 nM (inactive)
- GI50 [12]: > 100000 nM (inactive)
- GI50 [13]: > 100000 nM (inactive)
- GI50 [14]: > 100000 nM (inactive)
- GI50 [66]: > 100000 nM (inactive)
- GI50 [16]: > 100000 nM (inactive)
- GI50 [17]: > 100000 nM (inactive)
- GI50 [18]: > 100000 nM (inactive)
- GI50 [19]: > 100000 nM (inactive)
- GI50 [20]: > 100000 nM (inactive)
- GI50 [21]: > 100000 nM (inactive)
- GI50 [22]: > 100000 nM (inactive)
- GI50 [25]: > 100000 nM (inactive)
- GI50 [67]: > 100000 nM (inactive)
- GI50 [26]: > 100000 nM (inactive)
- GI50 [27]: > 100000 nM (inactive)
- GI50 [30]: > 100000 nM (inactive)
- GI50 [31]: > 100000 nM (inactive)
- GI50 [32]: > 100000 nM (inactive)
- GI50 [33]: > 100000 nM (inactive)
- GI50 [34]: > 100000 nM (inactive)
- GI50 [35]: > 100000 nM (inactive)
- GI50 [36]: > 31600 nM (inactive)
- GI50 [37]: > 100000 nM (inactive)
- GI50 [38]: > 100000 nM (inactive)
- GI50 [39]: > 100000 nM (inactive)
- GI50 [40]: > 100000 nM (inactive)
- GI50 [42]: > 100000 nM (inactive)
- GI50 [43]: > 100000 nM (inactive)
- GI50 [44]: > 100000 nM (inactive)
- GI50 [45]: > 100000 nM (inactive)
- GI50 [47]: > 100000 nM (inactive)
- GI50 [68]: > 100000 nM (inactive)
- GI50 [48]: > 100000 nM (inactive)
- GI50 [51]: > 100000 nM (inactive)
- GI50 [52]: > 100000 nM (inactive)
- GI50 [53]: > 77400 nM (inactive)
- GI50 [54]: > 100000 nM (inactive)
- GI50 [56]: > 100000 nM (inactive)
- GI50 [57]: > 100000 nM (inactive)
- GI50 [59]: > 100000 nM (inactive)
- GI50 [60]: > 100000 nM (inactive)
- GI50 [61]: > 67300 nM (inactive)
- GI50 [62]: > 100000 nM (inactive)
- GI50 [63]: > 100000 nM (inactive)
- GI50 [64]: > 100000 nM (inactive)
- GI50 [65]: > 100000 nM (inactive)

Source: ChEMBL document CHEMBL1201862, “PubChem BioAssay data set” (2004)
